Results taken from article PMC10046020, “In Silico Screening and Optimization of Cell-Penetrating Peptides Using Deep Learning Methods” (Biomolecules, 2023).
Like-named read-outs stand apart in the source and are kept apart here. Peptide text beside a SMILES is read from it. * marks the point of attachment. FITC = O=C1OC2(c3ccc(O)cc3Oc3cc(O)ccc32)c2ccc(NC(=S)*)cc21; Ahx = NCCCCCC(=O)O

Tests used:
[1] = cited from earlier work; for class (CPP / Non-CPP), Train Set: Spreadsheet S2: peptides collected from CellPPD
Excerpt: Supplement biomolecules-13-00522-s001.zip/biomolecules-2162660_Supplementary Spreadsheets S1 Test Set.csv, table | column: class || Supplement biomolecules-13-00522-s001.zip/biomolecules-2162660_Supplementary Spreadsheets S2 Train Set.csv, table | column: class

[2] = Spreadsheet S1: 150 CPP and 150 non-CPP peptides collected from CellPPD, MLCPP, CPPsite 2.0, Lifetein and other publications
[3] = MLCPP, CPPsite 2.0, Lifetein and other publications

Protocol for MCF-7 cells: MCF-7 cells are maintained in Roswell Park Memorial Institute 1640 medium supplemented with 10% fetal bovine serum and 1% antibiotics at 37 °C in an atmosphere of 5% CO2 in the air. Cells are cultured in a 35-mm plate at a density of 5 × 10^5 cells in growth medium, incubated overnight, and then treated with 1 µM FITC-conjugated peptide for 1 h at 37 °C in a CO2 incubator.
The cultured cells are harvested, washed twice with phosphate-buffered saline (PBS), treated with trypsin for 5 min, washed with PBS again, and then resuspended in 1 mL of 2% paraformaldehyde in PBS. Cells were then transferred to a fluorescence-activated cell sorting tube and analyzed by flow cytometry using a Novocyte flow cytometer (Agilent, Santa Clara, CA, USA).

| Compound | class (CPP / Non-CPP), Test Set [1, 2] | other results |
| --- | --- | --- |
| CSCC[C@H](NC(=O)CCCCCNC(=S)Nc1ccc2c(c1)C(=O)OC21c2ccc(O)cc2Oc2cc(O)ccc21)C(=O)N[C@@H](CCCCN)C(=O)N1CCC[C@H]1C(=O)NCC(=O)N[C@@H](CC(C)C)C(=O)N[C@@H](C)C(=O)N[C@@H](CC(C)C)C(=O)N[C@@H](CC(C)C)C(=O)N[C@@H](CC(C)C)C(=O)N[C@@H](CC(C)C)C(=O)N[C@@H](C)C(=O)N[C@@H](C)C(=O)N[C@@H](CCCCN)C(=O)N[C@@H](CCCCN)C(=O)N[C@@H](C)C(=O)N[C@@H](CCCNC(=N)N)C(=O)N[C@@H](C)C(N)=O [Peptide 10] ({FITC-Ahx}-MKPGLALLLLAAKKARA-NH2) | – | cell permeability compared to the WT peptide (MCF-7 cells): lower cell permeability than the WT CPP |
| CSCC[C@H](NC(=O)CCCCCNC(=S)Nc1ccc2c(c1)C(=O)OC21c2ccc(O)cc2Oc2cc(O)ccc21)C(=O)N[C@@H](CC(C)C)C(=O)N[C@@H](CCCCN)C(=O)N[C@@H](Cc1c[nH]cn1)C(=O)N[C@@H](CC(C)C)C(=O)N[C@@H](C)C(=O)N[C@@H](CC(C)C)C(=O)N[C@@H](CC(C)C)C(=O)N[C@@H](CC(C)C)C(=O)N[C@@H](CC(C)C)C(=O)N[C@@H](C)C(=O)N[C@@H](C)C(=O)N[C@@H](Cc1c[nH]c2ccccc12)C(=O)N[C@@H](CCCCN)C(=O)N[C@@H](C)C(=O)N[C@@H](CCCNC(=N)N)C(=O)N[C@@H](C)C(N)=O [Peptide 7] ({FITC-Ahx}-MLKHLALLLLAAWKARA-NH2) | – | Permeability (MCF-7 cells): 59.07% |
| CSCC[C@H](NC(=O)CCCCCNC(=S)Nc1ccc2c(c1)C(=O)OC21c2ccc(O)cc2Oc2cc(O)ccc21)C(=O)N[C@@H](CC(C)C)C(=O)N1CCC[C@H]1C(=O)NCC(=O)N[C@@H](CC(C)C)C(=O)N[C@@H](C)C(=O)N[C@@H](CC(C)C)C(=O)N[C@@H](CC(C)C)C(=O)N[C@@H](CCCCN)C(=O)N[C@@H](CC(C)C)C(=O)N[C@@H](C)C(=O)N[C@@H](C)C(=O)N[C@@H](Cc1c[nH]c2ccccc12)C(=O)N[C@H](C(=O)N[C@@H](C)C(=O)N[C@@H](CCCNC(=N)N)C(=O)N[C@@H](C)C(N)=O)[C@@H](C)O [Peptide 2] ({FITC-Ahx}-MLPGLALLKLAAWTARA-NH2) | – | cell permeability compared to the WT peptide (MCF-7 cells): lower cell permeability than the WT CPP |
| PVVHLTLRQEGDDFSR | Non-CPP | – |
| GWTLHSAGYLLGPHAI | Non-CPP | – |
| NWVTMKDSADSIDHECPRYFDTCERSCKISE | Non-CPP | – |
| RPEGQNYTEGIAVVF | Non-CPP | – |
| CLGSGEQCVRDTSCCSMSCTNNICF | Non-CPP | – |
| SRISNRLSSSATRT | Non-CPP | – |
| RLHRRLHRRLHRLHRRLHRLHRRLHRRLH | CPP | – |
| GLFLDTLKGLAGKLLQGLKCIKAGCKP | Non-CPP | – |
| RRRRRHHH | – | class (CPP / Non-CPP), Test Set [1]: CPP |
| REDEDEIEW | – | class (CPP / Non-CPP), Test Set [1]: CPP |
| LIRLWSHLIHIWFQNRRLKWKKKC | CPP | – |
| KLALKALKAALKPA | Non-CPP | – |
| RRRRRRRGGIYLATALAKWALKQ | – | class (CPP / Non-CPP), Train Set [1, 3]: CPP |
| SNGHACRPW | – | class (CPP / Non-CPP), Test Set [1]: Non-CPP |
| NAGGWFSSWFFSNTANEDQDDMLPSTSAAAGETNYARN | Non-CPP | – |
| GHHSLKITDDPFDVPFPINDDHDS | Non-CPP | – |
| GRGDGPRRKKKKGPRRKKKKGPRR | CPP | – |
| GLRKRLRKFRNKIKEKGLRKRLRKFRNKIKEK | CPP | – |
| ELVVLGKLYGRKKRRQRRR | CPP | – |
| SARRRRRREW | – | class (CPP / Non-CPP), Test Set [1]: CPP |
| GGVCPKILRRCRRDSDCPGACICRGNGYCGSGSD | CPP | – |

| Compound | class (CPP / Non-CPP), Test Set [1, 2] | other results |
| --- | --- | --- |
| WRWRWRWRW | – | class (CPP / Non-CPP), Test Set [1]: CPP |
| AAVALLPAVLLALLAKNNLKECGLY | CPP | – |
| KLDFLGEGQFATVYKARDKNT | Non-CPP | – |
| GRCTKSIPPICWPD | CPP | – |
| EILLPNNYNAYESYKYPGMFIALSK | Non-CPP | – |
| CARSKNKDC | – | class (CPP / Non-CPP), Test Set [1]: CPP |
| CVCVKTTSLVRPRHI | Non-CPP | – |
| FITKALGISYGRKKRRQS | Non-CPP | – |
| FLGVVFKLASKVFPAVFGKV | Non-CPP | – |
| CDAGRKQKC | – | class (CPP / Non-CPP), Test Set [1]: CPP |
| RQIKIWFQNRRMKWKKGG | CPP | – |
| PKKKRKVRRRRRRRPQMQQNVFQYPGAGMVPQGEANF | CPP | – |
| HDEFERHAEGTFTSDVFSYLEGQAAKEFIAWLVKGR | Non-CPP | – |
| RKGWFKAMKSIAKFIAKEKLKEHL | CPP | – |
| LIKRKRLI | – | class (CPP / Non-CPP), Test Set [1]: Non-CPP |
| CYFQNCPRG | – | class (CPP / Non-CPP), Test Set [1]: Non-CPP |
| IDLNITMLEDHEFVP | Non-CPP | – |
| KLAKLAKKLAKLAK | CPP | – |
| RRRRWWWW | – | class (CPP / Non-CPP), Test Set [1]: CPP |
| STGKANKITITNDKGRLSK | CPP | – |
| CRGDKGDPC | – | class (CPP / Non-CPP), Test Set [1]: CPP |
| YARVRRRGPRRR | – | class (CPP / Non-CPP), Test Set [1]: CPP |
| WRWKKKKA | – | class (CPP / Non-CPP), Test Set [1]: CPP |
| VKRFKKFFRKLKKLV | CPP | – |

| Compound | class (CPP / Non-CPP), Test Set [1, 2] | other results |
| --- | --- | --- |
| DFDMLRCMLGRVYYPCWQV | Non-CPP | – |
| YMVGLCDYHILYSGWGQMDWHPEPHFYAWMYR | Non-CPP | – |
| QAHVHVWHKYSVKTVYH | Non-CPP | – |
| KKLSECLKRIGVELDS | Non-CPP | – |
| AGCKNFFWKMFTSC | Non-CPP | – |
| VIVTERVLLLVAP | – | class (CPP / Non-CPP), Test Set [1]: Non-CPP |
| AEQNPIYWARYADWLFTTPLLLLDLALLVDADEGT | CPP | – |
| CCTGRKKRRQRRR | CPP | – |
| ILRRRIRKQAHFHSK | Non-CPP | – |
| TWLKYH | – | class (CPP / Non-CPP), Test Set [1]: CPP |
| AGYLLGKTNLKALAALAKKIL | CPP | – |
| EILLPNSYNAYESYKYPGMFIALSK | Non-CPP | – |
| RARRNRRARILFQYRARNRARN | CPP | – |
| GCCSHPACNVNNPHICG | Non-CPP | – |
| GWTNLSAGYLLGPPPGFSPFR | Non-CPP | – |
| KKKKKKKKLLLLLLLL | Non-CPP | – |
| IAARIFLRSRQHIKLRHL | Non-CPP | – |
| HATKSQNINF | – | class (CPP / Non-CPP), Test Set [1]: CPP |
| YSSQHLCGSNLVEALYMTCGRSGFYRPHD | Non-CPP | – |
| KKKQYTWIHHGVVEVD | Non-CPP | – |
| LLGKGNLKALAALAKKIL | Non-CPP | – |
| LLKTTELLKTTELLKTTS | Non-CPP | – |
| RRLTLRQLLGLGSRRRRRSR | CPP | – |
| NAKTRRHERRRKLAIER | CPP | – |

| Compound | class (CPP / Non-CPP), Test Set [1, 2] | other results |
| --- | --- | --- |
| ELFSPIAIAVLGSCVL | Non-CPP | – |
| TFFYGGSRGKRNNFKTEEY | CPP | – |
| GIVEQCCDTPCSLYDPENYCN | Non-CPP | – |
| GRKKRRERRRPPERKC | CPP | – |
| KFFKFFKFFK | – | class (CPP / Non-CPP), Test Set [1]: CPP |
| KMTRAQRRAAARRNRWTAR | CPP | – |
| RRRRRRRRRR | – | class (CPP / Non-CPP), Test Set [1]: CPP |
| RRRRRRRRRETWWETWWTEW | CPP | – |
| FLPVLAGIAAKVVPALFCKITKKC | Non-CPP | – |
| GRKKRRQRRRG | CPP | – |
| WELVVAYGRKKRRQRRR | CPP | – |
| ENGPDQWSKLYP | – | class (CPP / Non-CPP), Test Set [1]: Non-CPP |
| IYLATALAKWALKQGFGGRRRRRRR | – | class (CPP / Non-CPP), Train Set [1, 3]: CPP |
| FLSFLLGPLIDLISKG | Non-CPP | – |
| KKLSECLKRIGDELDN | Non-CPP | – |
| DAATARGRGRSAASRPTERPRAPARSASRPRRPVD | CPP | – |
| GLKKLAELAHKLLKLGC | CPP | – |
| YGRKKRRQRRRPPLRKKKKKH | CPP | – |
| FKCRRWQWRMKKLGAPSITCVRRAF | CPP | – |
| MIRIAALNASSTIEDDHEGSFKSHKIQTKEAQEAE | Non-CPP | – |
| HGWEIHGLLHRA | – | class (CPP / Non-CPP), Test Set [1]: CPP |
